Assay results: patent EP4273147A1, “SUBSTITUTED SPIROLACTAMS, SALTS THEREOF AND THEIR USE AS HERBICIDALLY ACTIVE SUBSTANCES” (Bayer Aktiengesellschaft, priority 2022, dated 2023)

How the values were obtained:
ECHCG [1] = experiment: Herbicidal pre-emergence action (Table A2); assay type: in vivo, Echinochloa crus-galli; conditions: visual grading after ca. 3 weeks
From the text: (§1) Seeds of mono- and dicotyledonous weed plants were sown in plastic pots (double sowings with one species of mono- and one species of dicotyledonous weed plants per pot), in sandy loam, and covered with soil.

LOLRI = experiment: Herbicidal pre-emergence action (Table A3); assay type: in vivo, Lolium rigidum; conditions: visual grading after ca. 3 weeks
From the text: as §1

SETVI = experiment: Herbicidal pre-emergence action (Table A5); assay type: in vivo, Setaria viridis; conditions: visual grading after ca. 3 weeks
From the text: as §1

STEME = experiment: Herbicidal pre-emergence action (Table A6); assay type: in vivo, Stellaria media; conditions: visual grading after ca. 3 weeks
From the text: as §1

POAAN [2] = experiment: Herbicidal pre-emergence action (Table A7); assay type: in vivo, Poa annua; conditions: visual grading after ca. 3 weeks; for pest or weed control at 1280 g/ha: Poa annua, pre-emergence, 504 h, read-out: pre-emergence activity against POAAN
From the text: as §1

DIGSA = experiment: Herbicidal pre-emergence action (Table A12); assay type: in vivo, Digitaria sanguinalis; conditions: visual grading after ca. 3 weeks
From the text: as §1

POAAN [3] = experiment: Herbicidal post-emergence action (Table B7); assay type: in vivo, Poa annua
Experimental: (§2) Seeds of mono- and dicotyledonous weed plants were placed in plastic pots in sandy loam soil (doubly sown with in each case one species of mono- or dicotyledonous weed plants per pot), covered with soil and cultivated in a greenhouse under controlled growth conditions. 2 to 3 weeks after sowing, the test plants were treated at the one-leaf stage. […] After the test plants had been kept in the greenhouse under optimum growth conditions for about 3 weeks, the activity of the preparations was rated visually in comparison to untreated controls. For example, 100% activity = the plants have died, 0% activity = like control plants.

ECHCG [4] = experiment: Herbicidal post-emergence action (Table B3); assay type: in vivo, Echinochloa crus-galli; conditions: application rate 1280 g/ha; rated visually after about 3 weeks
Experimental: as §2

MATIN = experiment: Herbicidal pre-emergence action (Table A4); assay type: in vivo, Matricaria inodora; conditions: visual grading after ca. 3 weeks
From the text: as §1

KCHSC = experiment: Herbicidal pre-emergence action (Table A10); assay type: in vivo, Kochia scoparia; conditions: application rate 1280 g/ha; visual grading after ca. 3 weeks
From the text: as §1

Row | SMILES | pre-emergence activity against ECHCG (ECHCG [1]; application rate 1280 g/ha) | pre-emergence activity against STEME (STEME; application rate 1280 g/ha) | pre-emergence activity against POAAN (POAAN [2]; application rate 320 g/ha) | pre-emergence activity against POAAN (POAAN [2]; application rate 1280 g/ha) | pre-emergence activity against SETVI (SETVI; application rate 1280 g/ha) | other results
1 | O=C1N(Cc2c(F)cccc2F)CCCC12CCCN(CC1CCCCC1)C2=O (racemic) [I-034] | 90% | 100% | 100% | – | – | pre-emergence activity against LOLRI (LOLRI; application rate 1280 g/ha): 100%; pre-emergence activity against SETVI (SETVI; application rate 320 g/ha): 90%; pre-emergence activity against DIGSA (DIGSA; application rate 1280 g/ha): 100%; post-emergence activity against POAAN (POAAN [3]; application rate 1280 g/ha): 90%
2 | O=C1N(Cc2c(F)cccc2C(F)(F)F)CCCC12CCCN(Cc1c(F)cccc1C(F)(F)F)C2=O (racemic) [I-041] | – | – | – | 90% | – | pre-emergence activity against STEME (STEME; application rate 320 g/ha): 100%
3 | Cc1ccccc1CN1CCCC2(CCCN(Cc3cccs3)C2=O)C1=O (racemic) [I-043] | – | 90% | 100% | – | 100% | pre-emergence activity against ECHCG (ECHCG [1]; application rate 320 g/ha): 100%; post-emergence activity against ECHCG (ECHCG [4]): 90%; post-emergence activity against POAAN (POAAN [3]; application rate 320 g/ha): 90%
4 | O=C1N(Cc2ccccc2Cl)CCC12CCCN(Cc1cccc(F)c1F)C2=O (racemic) [I-049] | 100% | 90% | 100% | – | – | pre-emergence activity against LOLRI (LOLRI; application rate 320 g/ha): 90%; pre-emergence activity against SETVI (SETVI; application rate 320 g/ha): 100%; pre-emergence activity against DIGSA (DIGSA; application rate 320 g/ha): 90%; post-emergence activity against ECHCG (ECHCG [4]): 90%
5 | O=C1N(Cc2c(F)c(F)c(F)c(F)c2F)CCCC12CCCN(Cc1c(F)c(F)c(F)c(F)c1F)C2=O (racemic) [I-050] | 100% | 100% | – | 100% | 100% | post-emergence activity against ECHCG (ECHCG [4]): 100%
6 | O=C1N(Cc2ccccc2Br)CCCC12CCCN(Cc1ccccc1Br)C2=O (racemic) [I-064] | 90% | – | – | 100% | 90% | post-emergence activity against POAAN (POAAN [3]; application rate 1280 g/ha): 100%
7 | O=C1N(Cc2ccccc2C(F)F)CCCC12CCCN(Cc1ccccc1C(F)F)C2=O (racemic) [I-067] | – | – | 100% | – | 100% | –
8 | O=C1N(Cc2ccc(F)cc2Cl)CCCC12CCCN(Cc1ccc(F)cc1Cl)C2=O (racemic) [I-070] | – | 90% | – | 100% | – | –
9 | Cc1ccccc1CN1CCCC2(CCN(Cc3c(F)cccc3F)C2=O)C1=O (racemic) [I-077] | – | 90% | 100% | – | 100% | pre-emergence activity against LOLRI (LOLRI; application rate 320 g/ha): 100%; pre-emergence activity against DIGSA (DIGSA; application rate 320 g/ha): 90%
10 | O=C1N(Cc2c(F)ccc(F)c2Cl)CCCC12CCCN(Cc1c(F)ccc(F)c1Cl)C2=O (racemic) [I-078] | – | – | – | 100% | – | pre-emergence activity against STEME (STEME; application rate 320 g/ha): 90%
11 | Cc1ccccc1CN1CCCC2(CCN(Cc3cccc(F)c3F)C2=O)C1=O (racemic) [I-081] | – | 90% | 100% | – | 100% | pre-emergence activity against LOLRI (LOLRI; application rate 1280 g/ha): 90%; pre-emergence activity against MATIN (MATIN; application rate 1280 g/ha): 90%; pre-emergence activity against DIGSA (DIGSA; application rate 320 g/ha): 90%
12 | Cc1ccccc1CN1CCCC2(CCN(Cc3ccccc3F)C2=O)C1=O (racemic) [I-086] | 100% | – | – | 100% | 90% | pre-emergence activity against DIGSA (DIGSA; application rate 1280 g/ha): 100%
13 | N#Cc1ccccc1CN1CCCC2(CCCN(Cc3ccccc3C#N)C2=O)C1=O (racemic) [I-094] | – | – | – | 100% | 90% | –
14 | O=C1N(Cc2ccsc2)CCCC12CCCN(Cc1ccccc1Cl)C2=O (racemic) [I-099] | 100% | – | – | – | 100% | pre-emergence activity against LOLRI (LOLRI; application rate 1280 g/ha): 100%
15 | CCc1cc(CN2CCCC3(CCCN(Cc4cc(CC)no4)C3=O)C2=O)on1 (racemic) [I-100] | 100% | – | – | – | – | pre-emergence activity against LOLRI (LOLRI; application rate 1280 g/ha): 100%
16 | COc1ccccc1CN1CCCC2(CCCN(c3ccccc3)C2=O)C1=O (racemic) [I-102] | 90% | 90% | – | 90% | 90% | –
17 | O=C1N(Cc2ccsc2)CCCC12CCCN(Cc1ccccc1F)C2=O (racemic) [I-104] | – | – | 100% | – | – | pre-emergence activity against ECHCG (ECHCG [1]; application rate 320 g/ha): 90%; pre-emergence activity against MATIN (MATIN; application rate 320 g/ha): 90%; pre-emergence activity against SETVI (SETVI; application rate 320 g/ha): 90%
18 | O=C1N(Cc2cc(Cl)cnc2Cl)CCCC12CCCN(Cc1cc(Cl)cnc1Cl)C2=O (racemic) [I-117] | – | – | – | 100% | 100% | –
19 | O=C1N(Cc2cscc2Br)CCCC12CCCN(Cc1cscc1Br)C2=O (racemic) [I-186, 2,8-bis[(4-bromothiophen-3-yl)methyl]-2,8-diazaspiro[5.5]undecane-1,7-dione] | – | – | – | – | – | pre-emergence activity against KCHSC (KCHSC): 90%; pre-emergence activity against DIGSA (DIGSA; application rate 1280 g/ha): 90%
20 | Cc1cc(CN2CCCC3(CCCN(Cc4cc(C)no4)C3=O)C2=O)on1 (racemic) [I-195, 2,8-bis[(3-methyl-1,2-oxazol-5-yl)methyl]-2,8-diazaspiro[5.5]undecane-1,7-dione] | – | – | – | – | – | pest or weed control at 1280 g/ha (POAAN [2]; application rate 1280 g/ha): 100%
21 | O=C1N(Cc2cnc(Br)s2)CCCC12CCCN(Cc1cnc(Br)s1)C2=O (racemic) [I-204, 2,8-bis[(2-bromo-1,3-thiazol-5-yl)methyl]-2,8-diazaspiro[5.5]undecane-1,7-dione] | 100% | – | – | – | – | pest or weed control at 1280 g/ha (LOLRI; Lolium rigidum, pre-emergence, 504 h, application rate 1280 g/ha, read-out: pre-emergence activity against LOLRI): 90%; pest or weed control at 1280 g/ha (POAAN [2]; application rate 1280 g/ha): 100%
22 | O=C1N(Cc2ccsc2Br)CCCC12CCCN(Cc1ccsc1Br)C2=O (racemic) [I-216, 2,8-bis[(2-bromothien-3-yl)methyl]-2,8-diazaspiro[5.5]undecane-1,7-dione] | – | – | – | – | – | pest or weed control at 1280 g/ha (POAAN [2]; application rate 1280 g/ha): 90%
23 | O=C1N(Cc2cnc(Br)s2)CCCC12CCCN(Cc1cnc(Br)s1)C2=O (single isomer, unassigned; (-)) [I-206, (-)-2,8-bis[(2-bromo-1,3-thiazol-5-yl)methyl]-2,8-diazaspiro[5.5]undecane-1,7-dione] | 100% | 90% | 100% | – | 100% | pre-emergence activity against LOLRI (LOLRI; application rate 1280 g/ha): 90%; pre-emergence activity against DIGSA (DIGSA; application rate 1280 g/ha): 90%
